Experimental data taken from ChEMBL document CHEMBL1201862, “PubChem BioAssay data set” (2004).
The source made the active and inactive calls.

Columns and labels:
Estrogen receptor beta = Estrogen receptor beta (Homo sapiens, UniProt Q92731);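 further: recombinant ER-beta bound to coactivator SRC1 peptide in presence of estradiol agonist; inhibitors block coactivator peptide binding and lower the FRET signal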
Transthyretin = Transthyretin (Homo sapiens, UniProt P02766); test: Luminescence-based cell-based high throughput dose response assay to identify activators of Transthyretin (TTR) transcription.; format: functional
[1] = HEK293 Cytotoxicity Assay Measured in Cell-Based System Using Plate Reader - 7071-01_Inhibitor_Dose_CherryPick_Activity_Set2.; format: functional
HeLa = test: viability loss in HeLa cells – cell-based, ATP luminescence, cherry-pick samples, cytotoxicity control, dose response (AID 687004); format: functional; conditions: Homo sapiens
HEK293 [2] = test: viability loss in HEK293T cells – cell-based, ATP luminescence, cherry-pick samples, cytotoxicity control, dose response (AID 687005); format: functional; conditions: Homo sapiens;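 further: cells exposed to compound for 48 hours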
[3] = RKO cell viability reduction, dose response, CellTiter-Glo luminescence (AID 1117322); format: functional
[4] = CellTiter-Glo luminescence survival assay, SW480 colon tumor line, concentration-response curve, half-maximal inhibitory concentration (AID 1117338); format: functional
[5] = cytotoxicity toward Colo320 cells – cell-based, CellTiter-Glo luminescence, IC50, dose response (AID 1117334); format: functional; conditions: COLO 320
[6] = SNU-C1 cell viability reduction, dose response, CellTiter-Glo luminescence (AID 1117323); format: functional, cell-based
[7] = cytotoxicity toward HCT116 cells – cell-based, CellTiter-Glo luminescence, IC50, dose response (AID 1117332); format: functional; conditions: HCT-116
[8] = Reduced DLD-1 viability, concentration-response, CellTiter-Glo luminescence (AID 1117352); format: functional
[9] = cytotoxicity toward HT-29 cells – cell-based, CellTiter-Glo luminescence, IC50, dose response (AID 1117330); format: functional
[10] = target: Endoplasmic reticulum aminopeptidase 1 (Homo sapiens, UniProt Q9NZ08); test: inhibition of human ERAP1 enzyme activity – biochemical, cherry-pick, set 2, plate reader, dose response (AID 743314)
[11] = target: T1, Heat shock factor protein 1 (Mus musculus, UniProt P38532); test: enhancement of HSF1-driven luciferase signal – cell-based, NIH3T3, luminescence, dose retest, confirmation (AID 435004); format: functional;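 further: stress induced by proteasome inhibitor MG132 added 30 min after compound; luciferase reporter driven by HSF1 response element in NIH3T3 cells; actives raise luminescence as potentiators of the MG132 stress response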
T1 sequence (P38532 whole entry): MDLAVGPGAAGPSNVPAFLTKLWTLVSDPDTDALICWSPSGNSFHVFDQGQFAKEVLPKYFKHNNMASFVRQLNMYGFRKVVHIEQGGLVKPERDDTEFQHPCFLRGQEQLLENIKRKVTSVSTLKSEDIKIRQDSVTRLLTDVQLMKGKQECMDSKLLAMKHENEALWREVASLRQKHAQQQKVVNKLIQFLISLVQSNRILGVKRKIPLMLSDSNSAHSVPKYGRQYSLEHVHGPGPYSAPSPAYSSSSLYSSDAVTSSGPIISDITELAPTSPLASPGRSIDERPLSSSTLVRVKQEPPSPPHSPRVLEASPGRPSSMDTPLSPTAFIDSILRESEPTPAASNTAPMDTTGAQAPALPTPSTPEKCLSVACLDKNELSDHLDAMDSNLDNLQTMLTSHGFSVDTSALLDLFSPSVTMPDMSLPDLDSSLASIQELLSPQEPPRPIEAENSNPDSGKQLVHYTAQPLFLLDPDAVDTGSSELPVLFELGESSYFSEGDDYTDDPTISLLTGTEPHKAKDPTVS

Caspase-6 = Caspase-6 (Homo sapiens, UniProt P55212); test: inhibition of CASP6 peptide cleavage – biochemical, VEID-R110 fluorescence, cherry-pick, dose response (AID 720632)
[12] = viability loss in THP-1 monocytes – THP-1 cells, cytotoxicity control for Vif-APOBEC3G degradation inhibitor project, dose response (AID 1117359); format: functional; conditions: THP-1
Genome polyprotein = Genome polyprotein (dengue virus type 2, UniProt P29990); test: flavivirus cap methylation enzyme inhibition – biochemical, confirmation dose response, primary screen (AID 588689); format: functional
[13] = HIV-1 Vif–A3G interaction blockers – biochemical, TR-FRET, GST-Vif 1-94, biotin-A3G peptide, dose response retest, primary screen (AID 1117319); format: functional;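 further: TR-FRET signal of purified GST-Vif binding a biotinylated A3G peptide; inhibitors lower the FRET signal by blocking Vif and A3G binding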
Protein Tat = target: T2, Protein Tat (Human immunodeficiency virus type 1 group M subtype B (isolate HXB2)(HIV-1), UniProt P04608); format: functional;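 further: tat binding to TAR RNA read out by fluorescence polarization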
T2 sequence (P04608 whole entry): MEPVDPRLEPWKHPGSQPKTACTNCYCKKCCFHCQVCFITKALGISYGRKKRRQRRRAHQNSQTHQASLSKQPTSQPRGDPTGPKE

HEK293 [14] = test: cells; format: functional, cell-based; conditions: Homo sapiens
[15] = target: T3, Nuclear receptor subfamily 0 group B member 1 (Homo sapiens, UniProt P51843); test: Luminescence-based cell-based high throughput dose response assay for inhibitors of the orphan nuclear receptor subfamily 0, group B, member 1 (DAX1; NR0B1). [Related pubchem assays (depositor defined):AID504766, AID504790]; format: functional
T3 sequence (P51843 whole entry): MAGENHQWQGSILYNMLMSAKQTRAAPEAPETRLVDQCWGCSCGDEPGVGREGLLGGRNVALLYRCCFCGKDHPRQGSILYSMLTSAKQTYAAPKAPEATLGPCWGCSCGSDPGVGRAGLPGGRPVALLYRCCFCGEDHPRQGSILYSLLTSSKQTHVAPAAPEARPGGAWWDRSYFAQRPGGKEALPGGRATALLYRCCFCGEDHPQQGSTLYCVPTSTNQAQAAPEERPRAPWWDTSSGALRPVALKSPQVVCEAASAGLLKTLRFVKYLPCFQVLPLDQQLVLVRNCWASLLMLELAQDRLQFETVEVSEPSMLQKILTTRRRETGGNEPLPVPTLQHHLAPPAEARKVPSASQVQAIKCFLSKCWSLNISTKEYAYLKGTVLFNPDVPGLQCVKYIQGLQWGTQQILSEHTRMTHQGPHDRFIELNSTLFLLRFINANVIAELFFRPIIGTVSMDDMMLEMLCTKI

[16] = Luminescence-based cell-based high throughput dose response assay to identify activators of the DAF-12 from the parasite S. stercoralis (ssDAF-12).; format: functional
[17] = target: T4, Oxysterols receptor LXR-beta (Homo sapiens, UniProt P55055); test: LXR agonists, Gal4 luciferase reporter, dose response, counter-screen for ssDAF-12 agonist project, cell-based, luminescence, HEK293, S. stercoralis campaign (AID 720737); format: functional; conditions: read-out: IC50 (the source's name)
T4 sequence (P55055 whole entry): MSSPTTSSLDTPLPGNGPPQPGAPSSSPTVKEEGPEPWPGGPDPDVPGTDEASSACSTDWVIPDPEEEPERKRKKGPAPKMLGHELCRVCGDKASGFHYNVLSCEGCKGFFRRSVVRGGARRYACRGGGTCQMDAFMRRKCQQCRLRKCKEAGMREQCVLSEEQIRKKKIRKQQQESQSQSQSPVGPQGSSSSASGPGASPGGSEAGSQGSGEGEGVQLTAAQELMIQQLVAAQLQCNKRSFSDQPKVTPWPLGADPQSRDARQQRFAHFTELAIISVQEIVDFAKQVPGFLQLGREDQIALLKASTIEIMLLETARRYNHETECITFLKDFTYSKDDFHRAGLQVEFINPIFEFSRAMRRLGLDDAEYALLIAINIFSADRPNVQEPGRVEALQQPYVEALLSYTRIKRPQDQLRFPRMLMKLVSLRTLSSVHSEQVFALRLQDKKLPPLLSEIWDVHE

[18] = luciferase reporter signal suppression in cells – H4 neuroglioma cells, luminescence, dose response (AID 1990); format: functional, cell-based
cells = format: functional, cell-based
[19] = toxicity toward HepG2 liver cells – cell-based, plate reader, cherry-pick, antagonist series, cytotoxicity control, dose response (AID 743416); format: functional
[20] = Luminescence Cell-Based Dose Response HTS to Identify Inhibitors of 5'UTR Stem-Loop Driven Prion Protein mRNA Translation in H4 Neuroglioblastoma Cells. [Related pubchem assays: 1827 (Project Summary), 1813 (Primary HTS)]; format: functional
[21] = target: T1, Heat shock factor protein 1; test: decrease of HSF1-responsive luciferase luminescence – cell-based, NIH3T3, dose retest, confirmation (AID 2382); format: functional;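 further: NIH3T3 fibroblasts with HSF1-driven luciferase reporter stressed by proteasome inhibitor MG132; luminescence from HSF1-driven luciferase expression after 8 hours of MG132 stress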
[22] = target: T3, Nuclear receptor subfamily 0 group B member 1; format: functional, cell-based
[23] = alpha-synuclein stem-loop luciferase translation blockers – H4 neuroglioma cells, luminescence, confirmation (AID 1988); format: functional, cell-based
[24] = blockers of bursicon-stimulated LGR2 cAMP reporter – cell-based, HEK293, CRE-luciferase reporter, cherry pick, set 2, dose response (AID 743343); format: functional;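 further: transfected cells were stimulated with diluted bursicon conditioned medium after compound addition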
[25] = blockade of melanocortin 4 receptor signaling – cell-based, plate reader, cherry pick, counter-screen for LGR2 antagonist project, dose response (AID 743444); format: functional;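 further: transfected HEK 293 cells stimulated with alpha-MSH peptide; potency of inhibitors of the alpha-MSH evoked signal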
[26] = viability loss in HEK293 cells – cell-based, plate reader, cherry-picked samples, cytotoxicity control, dose response (AID 743446); format: functional
[27] = A549 cell cytotoxicity, dose response, cytotoxicity control, plate reader, cherry-pick, antagonist series (AID 743412); format: functional, cell-based
fMet-Leu-Phe receptor = fMet-Leu-Phe receptor (Homo sapiens, UniProt P21462); test: formyl peptide receptor binders – dose response (AID 519); format: functional
fMet-Leu-Phe receptor, sequence (P21462 whole entry): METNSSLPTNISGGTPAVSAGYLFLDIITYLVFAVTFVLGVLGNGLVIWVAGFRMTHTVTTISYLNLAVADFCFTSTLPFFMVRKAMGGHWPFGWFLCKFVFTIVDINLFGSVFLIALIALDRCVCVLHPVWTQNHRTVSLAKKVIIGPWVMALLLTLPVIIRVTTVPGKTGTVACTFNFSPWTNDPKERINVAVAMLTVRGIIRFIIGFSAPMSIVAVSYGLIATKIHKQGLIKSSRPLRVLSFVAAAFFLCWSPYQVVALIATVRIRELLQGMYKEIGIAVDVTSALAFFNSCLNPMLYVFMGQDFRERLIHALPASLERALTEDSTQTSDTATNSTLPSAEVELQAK

Estrogen receptor beta, sequence (Q92731 whole entry): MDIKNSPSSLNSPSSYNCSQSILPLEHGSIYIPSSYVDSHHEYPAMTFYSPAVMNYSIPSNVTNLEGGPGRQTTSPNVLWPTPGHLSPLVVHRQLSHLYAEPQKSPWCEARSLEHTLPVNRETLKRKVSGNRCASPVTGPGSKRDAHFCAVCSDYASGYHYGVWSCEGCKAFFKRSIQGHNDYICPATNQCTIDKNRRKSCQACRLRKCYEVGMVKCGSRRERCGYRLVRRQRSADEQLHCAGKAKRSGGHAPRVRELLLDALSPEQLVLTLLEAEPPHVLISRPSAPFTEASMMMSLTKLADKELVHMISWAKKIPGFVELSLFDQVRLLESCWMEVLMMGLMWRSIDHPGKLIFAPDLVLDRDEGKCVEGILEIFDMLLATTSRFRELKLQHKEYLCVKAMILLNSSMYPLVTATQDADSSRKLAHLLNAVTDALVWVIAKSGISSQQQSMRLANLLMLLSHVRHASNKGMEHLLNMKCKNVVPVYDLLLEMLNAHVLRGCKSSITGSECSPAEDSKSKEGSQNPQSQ
Genome polyprotein, sequence (P29990 2492-3391 limits assumed): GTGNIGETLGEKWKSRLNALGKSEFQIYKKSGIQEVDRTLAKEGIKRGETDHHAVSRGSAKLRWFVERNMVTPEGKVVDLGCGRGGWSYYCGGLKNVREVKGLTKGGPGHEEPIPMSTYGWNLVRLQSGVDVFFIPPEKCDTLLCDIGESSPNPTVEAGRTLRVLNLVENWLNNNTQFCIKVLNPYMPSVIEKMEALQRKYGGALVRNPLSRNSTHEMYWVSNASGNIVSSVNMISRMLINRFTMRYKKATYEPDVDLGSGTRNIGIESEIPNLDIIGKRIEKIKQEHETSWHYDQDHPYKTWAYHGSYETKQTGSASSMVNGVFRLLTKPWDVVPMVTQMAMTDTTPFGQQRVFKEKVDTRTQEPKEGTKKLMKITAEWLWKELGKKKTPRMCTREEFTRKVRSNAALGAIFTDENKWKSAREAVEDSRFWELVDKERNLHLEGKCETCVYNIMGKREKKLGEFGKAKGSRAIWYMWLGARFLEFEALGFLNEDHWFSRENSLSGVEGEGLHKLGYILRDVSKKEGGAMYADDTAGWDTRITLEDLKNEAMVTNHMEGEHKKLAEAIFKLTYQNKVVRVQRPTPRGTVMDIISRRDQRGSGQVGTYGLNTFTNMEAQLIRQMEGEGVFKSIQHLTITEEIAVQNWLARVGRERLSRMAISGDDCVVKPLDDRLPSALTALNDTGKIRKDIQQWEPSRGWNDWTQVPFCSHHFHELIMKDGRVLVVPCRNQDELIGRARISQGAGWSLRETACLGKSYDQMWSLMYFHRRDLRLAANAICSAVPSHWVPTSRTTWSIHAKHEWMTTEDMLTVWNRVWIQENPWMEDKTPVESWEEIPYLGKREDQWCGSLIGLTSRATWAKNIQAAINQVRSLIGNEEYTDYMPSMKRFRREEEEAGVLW
Caspase-6, sequence (P55212 24-179 limits assumed): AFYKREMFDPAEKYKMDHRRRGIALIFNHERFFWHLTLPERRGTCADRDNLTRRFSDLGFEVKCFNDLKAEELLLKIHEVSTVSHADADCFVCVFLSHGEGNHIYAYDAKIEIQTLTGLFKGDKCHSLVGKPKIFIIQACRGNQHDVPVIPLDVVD
Caspase-6, sequence (P55212 194-293 limits assumed): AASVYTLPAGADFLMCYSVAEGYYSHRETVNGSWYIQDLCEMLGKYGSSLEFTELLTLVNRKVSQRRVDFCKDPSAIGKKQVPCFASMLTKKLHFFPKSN
Endoplasmic reticulum aminopeptidase 1, sequence (Q9NZ08 whole entry): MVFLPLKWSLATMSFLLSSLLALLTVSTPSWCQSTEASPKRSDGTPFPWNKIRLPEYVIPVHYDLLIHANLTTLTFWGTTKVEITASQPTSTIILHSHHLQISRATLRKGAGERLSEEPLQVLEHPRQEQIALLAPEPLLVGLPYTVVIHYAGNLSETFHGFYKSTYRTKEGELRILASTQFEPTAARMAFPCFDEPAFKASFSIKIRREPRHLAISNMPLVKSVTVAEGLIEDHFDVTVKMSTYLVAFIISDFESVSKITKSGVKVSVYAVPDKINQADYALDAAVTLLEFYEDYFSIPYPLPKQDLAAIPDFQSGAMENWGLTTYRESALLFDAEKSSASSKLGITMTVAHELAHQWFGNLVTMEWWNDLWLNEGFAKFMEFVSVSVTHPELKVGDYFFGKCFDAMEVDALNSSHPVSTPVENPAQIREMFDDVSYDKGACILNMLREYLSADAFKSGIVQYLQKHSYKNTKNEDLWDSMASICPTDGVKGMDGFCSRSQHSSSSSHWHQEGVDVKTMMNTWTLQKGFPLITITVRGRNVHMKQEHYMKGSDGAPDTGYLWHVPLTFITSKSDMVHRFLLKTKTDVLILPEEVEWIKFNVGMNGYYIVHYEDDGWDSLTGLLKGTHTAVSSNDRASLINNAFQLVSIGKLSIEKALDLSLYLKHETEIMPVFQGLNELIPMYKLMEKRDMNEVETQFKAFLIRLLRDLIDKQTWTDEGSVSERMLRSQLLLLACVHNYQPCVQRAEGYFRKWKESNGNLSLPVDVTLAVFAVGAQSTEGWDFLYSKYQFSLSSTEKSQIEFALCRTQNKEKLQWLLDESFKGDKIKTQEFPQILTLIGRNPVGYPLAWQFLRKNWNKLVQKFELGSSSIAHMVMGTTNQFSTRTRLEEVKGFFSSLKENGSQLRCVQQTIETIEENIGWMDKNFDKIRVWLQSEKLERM

In the case of `CCOc1ccccc1-c1nc(-c2cc3ccccc3nc2OC)no1`, the IC50 (Estrogen receptor beta) is reported as > 50 µM (not active).

With `CN1C(=O)C(=Cc2[nH]c3ccccc3c2CCNC(=S)NC2CC2)C(=O)N(C)C1=O` the EC50 (Transthyretin) was > 167 µM (inactive).

With `C[C@@H]1CN([C@H](C)CO)S(=O)(=O)c2ccc(C#CC3CC3)cc2O[C@H]1CN(C)CC1CCOCC1` the AC50 [1] was 15.4 µM (active), the AC50 (HeLa) was > 52 µM (inactive) and the AC50 (HEK293 [2]) was 15.4 µM (active).

For `C/C(=C(/OCCOc1ccc(Cl)cc1)c1ccc(Cl)cc1Cl)n1ccnc1` [OMOCONAZOLE], the IC50 [3] was > 6.67 µM (inactive), the IC50 [4] was 8.46 µM (inactive) and the IC50 [5] was 5.86 µM (inactive). For the same molecule, the IC50 [6] was 2.35 µM (active), the IC50 [7] was > 6.67 µM (inactive) and the IC50 [8] was 4.18 µM (active). The IC50 [9] was > 6.67 µM (inactive).

For `O=c1oc2cc(O)ccc2cc1S(=O)(=O)c1ccccc1`, the AC50 [10] was 1.44 µM (active) and the EC50 [11] was > 260 µM (inactive).

With `O=C(c1ccccc1NS(=O)(=O)c1ccc([N+](=O)[O-])cc1[N+](=O)[O-])N1O[C@@H]2C=C[C@H]1C2` the AC50 (Caspase-6) was 9.9 µM (active), the CC50 [12] was 36.7 µM (active) and the IC50 (Genome polyprotein) was 45.4 µM (active). The IC50 [13] was > 100 µM (active) and the IC50 (Protein Tat) was > 100 µM (active).

In the case of `Cn1cc(Br)c(C(=O)N2CCc3ccccc32)n1`, the EC50 (Transthyretin) is reported as > 167 µM (inactive).

For `C/C(=N\Nc1cccc2cccnc12)c1ccccc1O`, the IC50 (HEK293 [14]) was > 67.5 µM (inactive), the IC50 [15] was > 67.5 µM (inactive) and the IC50 [16] was > 67.5 µM (inactive). For the same molecule, the EC50 [17] was > 67.5 µM (inactive).

For `CC(=O)c1ccc(NC(=O)c2cnn3ccccc23)cc1`, the EC50 [18] was 2.12 µM (active), the IC50 (cells) was > 67.5 µM (inactive) and the AC50 [19] was > 52 µM (inactive). The EC50 [20] was 1.43 µM (active), the EC50 [21] was 14.3 µM (active) and the IC50 [22] was > 67.5 µM (inactive). For the same molecule, the EC50 [23] was 1.68 µM (active), the AC50 [24] was 9.16 µM (active) and the AC50 [25] was 11.7 µM (active). The AC50 [26] was > 52 µM (inactive) and the AC50 [27] was 50.1 µM (active).

In the case of `CCc1ccccc1NC(=O)C(C#N)Cc1cccnc1` (stereo unspecified), the Ki (fMet-Leu-Phe receptor) is reported as 31.7 µM (inactive).
